ChEMBL document CHEMBL1142182, “Novel Ambler class A beta-lactamase LAP-1 and its association with the plasmid-mediated quinolone resistance determinant QnrS1” (Antimicrob Agents Chemother, 2007)
≈ marks a conversion by molar mass, not a printed value.

Experiments:
[1] = system: Escherichia coli; experiment: Antibacterial activity against Escherichia coli DH10B expressing recombinant beta lactamase LAP1; assay type: functional
[2] = system: Enterobacter cloacae
Description: Activity of Enterobacter cloacae S3 isolate beta lactamase LAP1 expressed in Escherichia coli DH10B

[3] = system: Enterobacter cloacae; remark: listed apart in the source
Description: Ratio of kcat to Km of Enterobacter cloacae S3 isolate beta lactamase LAP1 expressed in Escherichia coli DH10B

[4] = system: Enterobacter cloacae; experiment: Antibacterial activity against Enterobacter cloacae S3 isolate by agar dilution technique; assay type: functional
[5] = system: Escherichia coli; experiment: Antibacterial activity against Escherichia coli DH10B; assay type: functional
[6] = Inhibition of Enterobacter cloacae S3 isolate beta lactamase LAP1 expressed in Escherichia coli DH10B

SMILES	MIC [1] [µg/mL]	Km [2] [µM]	kcat/Km [3] [M⁻¹ s⁻¹]	MIC [4] [µg/mL]	MIC [5] [µg/mL]	IC50 [6] [nM]
CO/N=C(\C(=O)N[C@@H]1C(=O)N2C(C(=O)[O-])=C(C[N+]3(C)CCCC3)CS[C@H]12)c1csc(N)n1	0.12					
CC1(C)S[C@@H]2[C@H](NC(=O)[C@H](N)c3ccc(O)cc3)C(=O)N2[C@H]1C(=O)O [AMOXICILLIN]	512	180	3.3e+06	> 512	4 (≈ 10.9 µM)	
CO/N=C(\C(=O)N[C@@H]1C(=O)N2C(C(=O)O)=C(COC(C)=O)CS[C@H]12)c1csc(N)n1 [CEFOTAXIME]	0.12			0.25 (≈ 0.549 µM)	0.12 (≈ 0.263 µM)	
CO[C@@]1(NC(=O)Cc2cccs2)C(=O)N2C(C(=O)O)=C(COC(N)=O)CS[C@@H]21 [CEFOXITIN]	4			256 (≈ 599 µM)	4 (≈ 9.36 µM)	
CC(C)(O/N=C(\C(=O)N[C@@H]1C(=O)N2C(C(=O)[O-])=C(C[n+]3ccccc3)CS[C@H]12)c1csc(N)n1)C(=O)O [CEFTAZIDIME]	0.12			0.5 (≈ 0.915 µM)	0.06 (≈ 0.11 µM)	
CO/N=C(\C(=O)N[C@@H]1C(=O)N2C(C(=O)O)=C(COC(N)=O)CS[C@H]12)c1ccco1 [CEFUROXIME]	8	> 2000	> 50000	256 (≈ 603 µM)	2 (≈ 4.71 µM)	
CC(=O)OCC1=C(C(=O)O)N2C(=O)[C@@H](NC(=O)Cc3cccs3)[C@H]2SC1 [CEPHALOTHIN]	16	400	90000	> 512	4 (≈ 10.1 µM)	
C[C@@H](O)[C@H]1C(=O)N2C(C(=O)O)=C(SCCNC=N)C[C@H]12 [IMIPENEM ANHYDROUS]				0.12 (≈ 0.401 µM)		
CC1(C)S[C@@H]2[C@H](NC(=O)Cc3ccccc3)C(=O)N2[C@H]1C(=O)O [PENICILLIN G]		20	1e+07			80
CCN1CCN(C(=O)N[C@@H](C(=O)N[C@@H]2C(=O)N3[C@@H]2SC(C)(C)[C@@H]3C(=O)O)c2ccccc2)C(=O)C1=O [PIPERACILLIN]	4	50	1.5e+06	16 (≈ 30.9 µM)	1 (≈ 1.93 µM)	
CC1(C)S[C@@H]2[C@H](NC(=O)[C@H](C(=O)O)c3ccsc3)C(=O)N2[C@H]1C(=O)O [TICARCILLIN]	512			> 512	4 (≈ 10.4 µM)	
